Data published in PMC5622171 (Nature Communications, 2017).

Key:
Experiment in all cases: KINOMEscan kinase profiling
Assay type in all cases: binding
[1] = biological target: T1, DRAK1 (Homo sapiens, UniProt Q9UEE5); details: read-out: %Inhibition by 10 μM SPA70
T1 construct: purchased DiscoverX (Ambit Biosciences) KINOMEscan
Outline: (§1)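 KINOMEscan profiling followed a published protocol. Kinases whose inhibition exceeded a set cut-off were then tested in a dilution series beginning at 30 µM.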

[2] = biological target: T2, ACVR2B (Homo sapiens, UniProt Q13705)
T2 construct: purchased DiscoverX (Ambit Biosciences) KINOMEscan
Outline: as §1

[3] = biological target: T3, CSF1R (Homo sapiens, UniProt P07333)
T3 construct: purchased Ambit Biosciences, now part of DiscoveryX
T3 sequence (P07333 20-972): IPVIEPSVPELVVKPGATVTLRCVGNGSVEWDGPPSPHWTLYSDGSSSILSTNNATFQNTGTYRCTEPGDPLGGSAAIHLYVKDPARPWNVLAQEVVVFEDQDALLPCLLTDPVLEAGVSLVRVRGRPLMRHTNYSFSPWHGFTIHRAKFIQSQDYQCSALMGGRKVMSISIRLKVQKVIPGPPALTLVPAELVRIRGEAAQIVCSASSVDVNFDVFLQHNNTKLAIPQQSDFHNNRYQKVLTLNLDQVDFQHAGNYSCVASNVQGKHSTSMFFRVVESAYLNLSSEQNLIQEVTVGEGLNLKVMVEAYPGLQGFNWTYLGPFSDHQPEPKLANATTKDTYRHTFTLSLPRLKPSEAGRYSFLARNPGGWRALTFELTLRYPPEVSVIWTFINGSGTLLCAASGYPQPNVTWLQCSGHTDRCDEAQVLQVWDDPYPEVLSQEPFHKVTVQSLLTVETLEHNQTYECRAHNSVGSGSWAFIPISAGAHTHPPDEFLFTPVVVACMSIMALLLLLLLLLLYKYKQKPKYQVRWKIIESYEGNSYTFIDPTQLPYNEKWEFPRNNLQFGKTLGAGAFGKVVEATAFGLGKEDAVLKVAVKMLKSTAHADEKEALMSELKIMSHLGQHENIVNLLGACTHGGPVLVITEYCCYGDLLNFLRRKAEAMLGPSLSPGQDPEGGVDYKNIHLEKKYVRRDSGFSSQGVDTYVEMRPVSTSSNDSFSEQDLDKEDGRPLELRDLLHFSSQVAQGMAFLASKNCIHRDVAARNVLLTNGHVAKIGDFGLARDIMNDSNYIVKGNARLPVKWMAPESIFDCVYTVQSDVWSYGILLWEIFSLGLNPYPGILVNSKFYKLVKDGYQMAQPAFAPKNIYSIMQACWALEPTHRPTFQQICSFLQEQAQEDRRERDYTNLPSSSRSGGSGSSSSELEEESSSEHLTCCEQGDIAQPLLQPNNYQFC
Outline: as §1

[4] = biological target: T4, MARK3 (Homo sapiens, UniProt P27448); details: read-out: %Inhibition by 10 μM SPA70
T4 construct: purchased DiscoverX (Ambit Biosciences) KINOMEscan
T4 sequence (P27448 whole entry): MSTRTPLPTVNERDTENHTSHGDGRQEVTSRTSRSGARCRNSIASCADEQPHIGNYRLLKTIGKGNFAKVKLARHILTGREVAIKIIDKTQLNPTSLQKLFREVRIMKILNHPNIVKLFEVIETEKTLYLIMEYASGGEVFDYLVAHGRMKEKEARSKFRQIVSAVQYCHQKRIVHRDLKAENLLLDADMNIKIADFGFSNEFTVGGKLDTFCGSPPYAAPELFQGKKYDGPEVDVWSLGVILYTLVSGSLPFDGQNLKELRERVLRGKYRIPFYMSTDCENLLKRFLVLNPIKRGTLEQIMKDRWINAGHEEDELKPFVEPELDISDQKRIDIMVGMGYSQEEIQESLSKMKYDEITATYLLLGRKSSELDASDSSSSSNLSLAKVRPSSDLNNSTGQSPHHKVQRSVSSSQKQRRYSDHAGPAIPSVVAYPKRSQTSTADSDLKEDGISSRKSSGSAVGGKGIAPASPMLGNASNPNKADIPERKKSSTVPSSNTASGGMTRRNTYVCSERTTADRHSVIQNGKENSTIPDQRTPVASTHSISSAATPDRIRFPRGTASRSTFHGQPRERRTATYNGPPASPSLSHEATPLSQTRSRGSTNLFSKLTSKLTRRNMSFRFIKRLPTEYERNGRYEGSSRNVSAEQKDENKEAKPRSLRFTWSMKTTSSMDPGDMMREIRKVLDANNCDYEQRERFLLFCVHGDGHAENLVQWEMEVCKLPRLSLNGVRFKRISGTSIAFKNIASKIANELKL
Outline: as §1

[5] = biological target: T5, ACVR2A (Homo sapiens, UniProt P27037); details: read-out: %Inhibition by 10 μM SPA70
T5 construct: purchased DiscoverX (Ambit Biosciences) KINOMEscan
Outline: as §1

[6] = biological target: T6, NLK (Homo sapiens, UniProt Q9UBE8); details: read-out: %Inhibition by 10 μM SPA70
T6 construct: purchased DiscoverX (Ambit Biosciences) KINOMEscan
Outline: as §1

[7] = biological target: T7, PKN2 (Homo sapiens, UniProt Q16513); details: read-out: %Inhibition by 10 μM SPA70
T7 construct: purchased DiscoverX (Ambit Biosciences) KINOMEscan
Outline: as §1

[8] = biological target: T8, ERK3 (Homo sapiens, UniProt Q16659); details: read-out: %Inhibition by 10 μM SPA70
T8 construct: purchased DiscoverX (Ambit Biosciences) KINOMEscan
Outline: as §1

[9] = biological target: T9, FER (Homo sapiens, UniProt P16591); details: read-out: %Inhibition by 10 μM SPA70
T9 construct: purchased DiscoverX (Ambit Biosciences) KINOMEscan
Outline: as §1

[10] = biological target: T10, ICK (Homo sapiens, UniProt Q9UPZ9); details: read-out: %Inhibition by 10 μM SPA70
T10 construct: purchased DiscoverX (Ambit Biosciences) KINOMEscan
Outline: as §1

[11] = biological target: T11, ULK3 (Homo sapiens, UniProt Q6PHR2)
T11 construct: purchased DiscoverX (Ambit Biosciences) KINOMEscan
Outline: as §1

[12] = biological target: T12, MLK2 (Homo sapiens, UniProt Q02779); details: read-out: %Inhibition by 10 μM SPA70
T12 construct: purchased DiscoverX (Ambit Biosciences) KINOMEscan
Outline: as §1

[13] = biological target: T13, PRKCD (Homo sapiens, UniProt Q05655); details: read-out: %Inhibition by 10 μM SPA70
T13 construct: purchased DiscoverX (Ambit Biosciences) KINOMEscan
Outline: as §1

[14] = biological target: T14, MAP4K3 (Homo sapiens, UniProt Q8IVH8)
T14 construct: purchased DiscoverX (Ambit Biosciences) KINOMEscan
Outline: as §1

[15] = biological target: T15, CAMK1 (Homo sapiens, UniProt Q14012); details: read-out: %Inhibition by 10 μM SPA70
T15 construct: purchased DiscoverX (Ambit Biosciences) KINOMEscan
Outline: as §1

[16] = biological target: T16, RPS6KA5(Kin.Dom.2-C-terminal) (Homo sapiens, UniProt O75582); details: read-out: %Inhibition by 10 μM SPA70
T16 construct: RPS6KA5(Kin.Dom.2-C-terminal); purchased DiscoverX (Ambit Biosciences) KINOMEscan
Outline: as §1

[17] = biological target: T17, TRKB (Homo sapiens, UniProt Q16620); details: read-out: %Inhibition by 10 μM SPA70
T17 construct: purchased DiscoverX (Ambit Biosciences) KINOMEscan
Outline: as §1

[18] = biological target: T18, IGF1R (Homo sapiens, UniProt P08069); details: read-out: %Inhibition by 10 μM SPA70
T18 construct: purchased DiscoverX (Ambit Biosciences) KINOMEscan
T18 sequence (P08069 31-1367): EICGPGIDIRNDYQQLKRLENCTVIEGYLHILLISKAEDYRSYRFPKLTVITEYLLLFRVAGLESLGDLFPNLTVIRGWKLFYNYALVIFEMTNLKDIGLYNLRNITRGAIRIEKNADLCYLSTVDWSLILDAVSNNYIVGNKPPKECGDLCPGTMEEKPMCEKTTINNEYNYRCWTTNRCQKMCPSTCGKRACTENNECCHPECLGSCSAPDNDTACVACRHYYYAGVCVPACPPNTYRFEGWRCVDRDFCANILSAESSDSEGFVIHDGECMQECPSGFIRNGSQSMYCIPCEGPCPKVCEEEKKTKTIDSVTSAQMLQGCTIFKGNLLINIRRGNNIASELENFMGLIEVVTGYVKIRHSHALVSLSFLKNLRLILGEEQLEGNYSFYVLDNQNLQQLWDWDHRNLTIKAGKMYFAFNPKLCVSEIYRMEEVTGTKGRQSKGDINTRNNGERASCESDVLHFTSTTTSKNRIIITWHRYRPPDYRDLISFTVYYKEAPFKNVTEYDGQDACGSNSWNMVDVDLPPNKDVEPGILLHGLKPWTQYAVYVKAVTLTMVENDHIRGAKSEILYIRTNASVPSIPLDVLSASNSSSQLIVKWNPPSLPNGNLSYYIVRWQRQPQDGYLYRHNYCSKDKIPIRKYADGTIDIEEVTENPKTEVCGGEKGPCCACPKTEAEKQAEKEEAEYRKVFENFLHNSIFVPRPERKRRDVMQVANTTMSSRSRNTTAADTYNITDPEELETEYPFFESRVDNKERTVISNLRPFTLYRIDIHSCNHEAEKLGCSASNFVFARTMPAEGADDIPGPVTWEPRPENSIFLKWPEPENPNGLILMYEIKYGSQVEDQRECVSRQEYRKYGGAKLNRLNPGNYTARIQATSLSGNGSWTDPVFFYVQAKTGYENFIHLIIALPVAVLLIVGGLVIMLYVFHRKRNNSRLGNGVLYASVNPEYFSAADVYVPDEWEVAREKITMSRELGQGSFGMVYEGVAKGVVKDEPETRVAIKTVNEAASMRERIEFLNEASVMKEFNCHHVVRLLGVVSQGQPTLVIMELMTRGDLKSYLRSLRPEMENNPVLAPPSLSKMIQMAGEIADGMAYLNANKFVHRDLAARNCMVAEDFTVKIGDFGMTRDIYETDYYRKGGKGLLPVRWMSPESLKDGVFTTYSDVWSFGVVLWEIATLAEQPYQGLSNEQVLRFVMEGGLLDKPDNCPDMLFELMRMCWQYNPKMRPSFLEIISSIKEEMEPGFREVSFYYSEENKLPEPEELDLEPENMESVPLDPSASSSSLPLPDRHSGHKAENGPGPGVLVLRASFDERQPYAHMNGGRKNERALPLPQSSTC
Outline: as §1

[19] = biological target: T19, MAP3K2 (Homo sapiens, UniProt Q9Y2U5); details: read-out: %Inhibition by 10 μM SPA70
T19 construct: purchased DiscoverX (Ambit Biosciences) KINOMEscan
T19 sequence (Q9Y2U5 whole entry): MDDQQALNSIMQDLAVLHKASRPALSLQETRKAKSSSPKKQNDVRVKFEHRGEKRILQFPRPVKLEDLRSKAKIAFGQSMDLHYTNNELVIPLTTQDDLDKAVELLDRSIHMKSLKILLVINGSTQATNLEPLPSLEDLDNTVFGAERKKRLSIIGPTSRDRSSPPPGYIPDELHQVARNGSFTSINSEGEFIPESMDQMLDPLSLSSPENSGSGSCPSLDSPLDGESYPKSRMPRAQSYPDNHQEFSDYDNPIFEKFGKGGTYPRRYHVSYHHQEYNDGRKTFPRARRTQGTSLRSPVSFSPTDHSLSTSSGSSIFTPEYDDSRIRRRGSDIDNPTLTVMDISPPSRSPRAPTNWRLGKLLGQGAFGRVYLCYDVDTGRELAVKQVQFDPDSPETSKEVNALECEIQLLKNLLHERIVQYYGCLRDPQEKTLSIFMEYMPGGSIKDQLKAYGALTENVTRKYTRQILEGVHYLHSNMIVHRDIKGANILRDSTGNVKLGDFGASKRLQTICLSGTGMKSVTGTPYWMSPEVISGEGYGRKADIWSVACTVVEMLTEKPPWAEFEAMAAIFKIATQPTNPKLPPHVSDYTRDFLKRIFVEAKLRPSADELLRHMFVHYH
Outline: as §1

[20] = biological target: T20, RSK2(Kin.Dom.1-N-terminal) (Homo sapiens, UniProt P51812); details: read-out: %Inhibition by 10 μM SPA70
T20 construct: RSK2(Kin.Dom.1-N-terminal); purchased DiscoverX (Ambit Biosciences) KINOMEscan
Outline: as §1

[21] = biological target: T21, S6K1 (Homo sapiens, UniProt P23443); details: read-out: %Inhibition by 10 μM SPA70
T21 construct: purchased DiscoverX (Ambit Biosciences) KINOMEscan
Outline: as §1

[22] = biological target: T22, MST1R (Homo sapiens, UniProt Q04912); details: read-out: %Inhibition by 10 μM SPA70
T22 construct: purchased DiscoverX (Ambit Biosciences) KINOMEscan
Outline: as §1

[23] = biological target: T23, BRAF (Homo sapiens, UniProt P15056); details: read-out: %Inhibition by 10 μM SPA70
T23 construct: purchased DiscoverX (Ambit Biosciences) KINOMEscan
T23 sequence (P15056 whole entry): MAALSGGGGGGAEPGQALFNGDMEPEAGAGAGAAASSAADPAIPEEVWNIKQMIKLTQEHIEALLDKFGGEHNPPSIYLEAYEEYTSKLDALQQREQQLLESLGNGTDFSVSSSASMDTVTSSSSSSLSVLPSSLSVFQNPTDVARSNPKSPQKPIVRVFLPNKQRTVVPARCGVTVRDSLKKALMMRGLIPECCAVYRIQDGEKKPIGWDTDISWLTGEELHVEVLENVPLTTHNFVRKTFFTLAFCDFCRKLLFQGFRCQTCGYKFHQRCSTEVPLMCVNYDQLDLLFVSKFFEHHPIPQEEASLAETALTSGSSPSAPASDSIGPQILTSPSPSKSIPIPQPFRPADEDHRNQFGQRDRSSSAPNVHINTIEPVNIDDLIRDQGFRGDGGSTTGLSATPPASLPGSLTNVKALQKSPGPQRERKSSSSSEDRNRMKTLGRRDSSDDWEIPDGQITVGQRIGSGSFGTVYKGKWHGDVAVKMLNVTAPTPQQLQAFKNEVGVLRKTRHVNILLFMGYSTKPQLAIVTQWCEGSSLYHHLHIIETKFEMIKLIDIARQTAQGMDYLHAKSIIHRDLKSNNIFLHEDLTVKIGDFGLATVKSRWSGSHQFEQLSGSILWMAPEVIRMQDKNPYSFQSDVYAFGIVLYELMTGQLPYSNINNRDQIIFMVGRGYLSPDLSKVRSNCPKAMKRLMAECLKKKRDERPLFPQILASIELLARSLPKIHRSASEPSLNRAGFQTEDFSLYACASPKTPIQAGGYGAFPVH
Outline: as §1

[24] = biological target: T24, MST3 (Homo sapiens, UniProt Q9Y6E0)
T24 construct: purchased DiscoverX (Ambit Biosciences) KINOMEscan
Outline: as §1

[25] = biological target: T25, ABL1-phosphorylated (Homo sapiens, UniProt P00519); details: read-out: %Inhibition by 10 μM SPA70
T25 construct: purchased DiscoverX (Ambit Biosciences) KINOMEscan
Outline: as §1

[26] = biological target: T26, MRCKB (Homo sapiens, UniProt Q9Y5S2); details: read-out: %Inhibition by 10 μM SPA70
T26 construct: purchased DiscoverX (Ambit Biosciences) KINOMEscan
Outline: as §1

[27] = biological target: T27, TNK1 (Homo sapiens, UniProt Q13470); details: read-out: %Inhibition by 10 μM SPA70
T27 construct: purchased DiscoverX (Ambit Biosciences) KINOMEscan
Outline: as §1

[28] = biological target: T28, IKK-alpha (Homo sapiens, UniProt O15111); details: read-out: %Inhibition by 10 μM SPA70
T28 construct: purchased DiscoverX (Ambit Biosciences) KINOMEscan
Outline: as §1

[29] = biological target: T29, ACVRL1 (Homo sapiens, UniProt P37023); details: read-out: %Inhibition by 10 μM SPA70
T29 construct: purchased DiscoverX (Ambit Biosciences) KINOMEscan
Outline: as §1

[30] = biological target: T30, SRPK3 (Homo sapiens, UniProt Q9UPE1); details: read-out: %Inhibition by 10 μM SPA70
T30 construct: purchased DiscoverX (Ambit Biosciences) KINOMEscan
Outline: as §1

[31] = biological target: T31, JNK2 (Homo sapiens, UniProt P45984)
T31 construct: purchased DiscoverX (Ambit Biosciences) KINOMEscan
Outline: as §1

[32] = biological target: T32, CSNK1G3 (Homo sapiens, UniProt Q9Y6M4)
T32 construct: purchased DiscoverX (Ambit Biosciences) KINOMEscan
Outline: as §1

[33] = biological target: T33, RSK4(Kin.Dom.2-C-terminal) (Homo sapiens, UniProt Q9UK32)
T33 construct: RSK4(Kin.Dom.2-C-terminal); purchased DiscoverX (Ambit Biosciences) KINOMEscan
Outline: as §1

[34] = biological target: T34, PIK3CD (Homo sapiens, UniProt O00329); details: read-out: %Inhibition by 10 μM SPA70
T34 construct: purchased DiscoverX (Ambit Biosciences) KINOMEscan
Outline: as §1

[35] = biological target: T35, STK36 (Homo sapiens, UniProt Q9NRP7); details: read-out: %Inhibition by 10 μM SPA70
T35 construct: purchased DiscoverX (Ambit Biosciences) KINOMEscan
Outline: as §1

[36] = biological target: T36, PIP5K2B (Homo sapiens, UniProt P78356); details: read-out: %Inhibition by 10 μM SPA70
T36 construct: purchased DiscoverX (Ambit Biosciences) KINOMEscan
Outline: as §1

[37] = biological target: T37, RAF1 (Homo sapiens, UniProt P04049); details: read-out: %Inhibition by 10 μM SPA70
T37 construct: purchased DiscoverX (Ambit Biosciences) KINOMEscan
Outline: as §1

[38] = biological target: T38, p38-gamma (Homo sapiens, UniProt P53778); details: read-out: %Inhibition by 10 μM SPA70
T38 construct: purchased DiscoverX (Ambit Biosciences) KINOMEscan
Outline: as §1

[39] = biological target: T39, ERBB2 (Homo sapiens, UniProt P04626); details: read-out: %Inhibition by 10 μM SPA70
T39 construct: purchased DiscoverX (Ambit Biosciences) KINOMEscan
Outline: as §1

[40] = biological target: T40, HIPK1 (Homo sapiens, UniProt Q86Z02); details: read-out: %Inhibition by 10 μM SPA70
T40 construct: purchased DiscoverX (Ambit Biosciences) KINOMEscan
Outline: as §1

T1 sequence (Q9UEE5 whole entry): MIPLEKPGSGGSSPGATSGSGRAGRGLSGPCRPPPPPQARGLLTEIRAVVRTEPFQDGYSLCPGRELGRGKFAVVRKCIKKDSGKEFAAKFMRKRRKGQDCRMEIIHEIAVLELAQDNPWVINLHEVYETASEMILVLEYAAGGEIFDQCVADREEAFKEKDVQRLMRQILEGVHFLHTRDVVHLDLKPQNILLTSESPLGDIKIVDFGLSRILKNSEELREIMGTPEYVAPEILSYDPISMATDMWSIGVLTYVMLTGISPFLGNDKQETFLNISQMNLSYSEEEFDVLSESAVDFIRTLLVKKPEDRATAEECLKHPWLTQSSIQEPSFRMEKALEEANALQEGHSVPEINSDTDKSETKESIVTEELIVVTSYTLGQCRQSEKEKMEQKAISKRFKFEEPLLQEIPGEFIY

COc1ccc(OC)c(-n2nnc(S(=O)(=O)c3ccc(C(C)(C)C)cc3)c2C)c1 [SPA70]
inhibition at 10 µM [1]: 7%
%Inhibition by 10 μM SPA70 [2]: 0%
Kd ([3]; 11-point 3-fold serial dilutions starting from 30 µM): 4 µM
inhibition at 10 µM ([3]; read-out: %Inhibition by 10 μM SPA70): 63%
inhibition at 10 µM [4]: 2%
inhibition at 10 µM [5]: 0%
inhibition at 10 µM [6]: 16%
inhibition at 10 µM [7]: 0%
inhibition at 10 µM [8]: 11%
inhibition at 10 µM [9]: 19%
inhibition at 10 µM [10]: 0%
%Inhibition by 10 μM SPA70 [11]: 2%
inhibition at 10 µM [12]: 0%
inhibition at 10 µM [13]: 5%
%Inhibition by 10 μM SPA70 [14]: 0%
inhibition at 10 µM [15]: 0%
inhibition at 10 µM [16]: 37%
inhibition at 10 µM [17]: 0%
inhibition at 10 µM [18]: 0%
inhibition at 10 µM [19]: 15%
inhibition at 10 µM [20]: 11%
inhibition at 10 µM [21]: 13%
inhibition at 10 µM [22]: 3%
inhibition at 10 µM [23]: 0%
%Inhibition by 10 μM SPA70 [24]: 0%
inhibition at 10 µM [25]: 19%
inhibition at 10 µM [26]: 0%
inhibition at 10 µM [27]: 0%
inhibition at 10 µM [28]: 10%
inhibition at 10 µM [29]: 6%
inhibition at 10 µM [30]: 0%
%Inhibition by 10 μM SPA70 [31]: 0%
%Inhibition by 10 μM SPA70 [32]: 0%
%Inhibition by 10 μM SPA70 [33]: 16%
inhibition at 10 µM [34]: 0%
inhibition at 10 µM [35]: 0%
inhibition at 10 µM [36]: 0%
inhibition at 10 µM [37]: 19%
inhibition at 10 µM [38]: 8%
inhibition at 10 µM [39]: 5%
inhibition at 10 µM [40]: 32%
